Laboratory results taken from patent US8209131B2, “Therapeutic heparins and their binding to interleukins 4 and 5 and PECAM-1” (Curtin University of Technology, priority 2004, dated 2012).
Like-named read-outs stand apart in the source and are kept apart here.

Tests used:
[1] = BIAcore binding of proteins to heparin immobilised on a biosensor chip; settings: for binding to immobilized heparin: recombinant proteins, FIG. 2
Excerpt: This technology uses the optical phenomenon of surface plasmon resonance to monitor physical interactions between molecules. Passing the protein solution over a sensor surface to which the ligand is coupled monitors the real-time binding of proteins to an immobilized ligand. Detection is achieved by measuring refractive index changes very close to the sensor surface. When the refractive index is altered, the angle at which plasmon resonance occurs changes and this change directly correlates with the amount of protein interacting with the surface. A BIAcore 2000 is conveniently used. It is very sensitive and its microfluidics ensures that only small amounts of material are required.
The HLGAGs are immobilized on the biosensor chip. Intact HLGAGs are biotinylated via amino groups, or reducing termini modified with ammonia by reductive amination, using sulfo-NHS-biotin. Biotinylated HLGAGs are immobilized on streptavidin-coupled sensor chips. Solutions containing proteins of interest are injected over the sensor chip surface, and the binding is measured in real time (Fernig, In: Proteoglycan protocols, Ed. R.V. Iozzo, Humana Press, Totowa, N.J., USA, 2001). […] In all cases binding is specific, as there is little or no interaction with sensor chips lacking heparin with any of the targeted proteins, and binding is inhibited by exogenous heparin. Initial analyzes indicate that the binding of rhIL-5 to heparin has affinity constants of the order from 50-5×10^−9. Because unsubstituted amines are variably present in heparan sulfates from different tissues, an alternative method of biotin labeling is recommended for the heparan sulfate chip. In this case, heparan sulfate is labeled via oxidized cis-diol residues using biotinyl-LC-hydrazine. […]
Binding experiments with these proteins has indicated to which PECAM-1 domains heparin binds. Two binding assays were used: the assay where PECAM-1 is reacted with a BIAcore biosensor chip to which heparin has been immobilised and the second assay is the binding of PECAM-1 to heparan sulfate on the cell surface.
Site directed mutagenesis was performed on IL-4. Basic residues within the proposed heparin binding site were changed to alanine and the proteins expressed using the baculovirus expression system. The one exception was R88 which was changed to valine. Insect cell expressed proteins were purified on an anti-IL-4 affinity column and checked for purity by SDS-PAGE and silver staining. Mutant IL-4 proteins were examined for their ability to bind heparin immobilised on a biosensor chip and binding assessed using a BIAcore 2000.

[2] = system: TF1.8 cells; test: TF1.8 bioassay of IL-4 mutants (support of proliferation); type: cell-based, human; settings: IL-4 wt and mutants, TF1.8 cells
Description: TF-1.8 cells have been transfected with the firefly luciferase gene contained in the expression vector, pPGK-puromycin-luciferase (Coombe et al., 1998, Supra). The positive transfectants are cloned to produce a line with good luciferase expression. The proliferation assays are carried out in 96-well microplates suitable for such assays Falcon). The wells are flat bottomed, with white sides and a clear bottom. Cells are washed to remove any cytokine in the growth medium and then resuspended in RPMI/5% w/v FCS. The cells are counted with a Coulter Multisizer (Coulter Electronics, England) and routinely 2.5×10^4 cells are added to microplate wells that contain either no IL-4 (negative control) or various dilutions of IL-4. When the effect of HLGAGs, chondroitin sulfate C, or the heparin fractions of a particular length, or heparin fragments of a particular length and structure is to be measured, the wells also contain various concentrations of these molecules.
The cells proliferate for 48 hours at 37° C. in a humidified atmosphere, after which the luciferase activity is measured by the addition of 50 μl of luciferase substrate buffer (50 mm Tris-HCl, pH 7.8, 15 mM MgSO4, 33.3 mM DTT, 0.1 mM EDTA, 0.5 mM Na-luciferin, 0.5 mM ATP, 0.25 mM lithium Co A and 0.5% v/v Triton X-100). […] Light emissions are detected on a Victor 1420 Multilabel counter (Wallac, Turku, Finland). […]

Substance	binding of PECAM-1 constructs to immobilised heparin [1]	binding to immobilized heparin [1]	Kd ([1]; FIG. 24, several IL-4 concentrations, read-out: estimated KD of wild-type IL-4 binding to heparin)	ka ([1]; IL-4 WT and mutants binding to heparin, in M-1s-1 (unit assumed))	kd ([1]; IL-4 WT and mutants binding to heparin, in s-1 (unit assumed))	Kd ([1]; IL-4 WT and mutants binding to heparin, read-out: KD)	Conc needed for 50% growth, average [2]
flag-PECAM-1: extracellular domain of PECAM-1 fused to the flag affinity tag, Cos-7 expressed	can bind to the heparin chip	readily bind to heparin					
rhIL-5: baculovirus expressed human IL-5		readily bind to heparin					
WT: recombinant human wild-type IL-4		readily bind to heparin	5 to 10 nM	5.68E+04	2.88E−03	52.7 nM	0.99 ng/mL
CypA: E. coli expressed Cyclophilin A		readily bind to heparin					
